In patent publication US20260159536A1, “AKR1C3-ACTIVATED DNA ALKYLATING AGENT, AND MEDICAL APPLICATION THEREOF” (ASCENTAWITS PHARMACEUTICALS, LTD., priority 2021, published 2026):

Legend:
[1] = Chiral stability under long-term and accelerated storage conditions; format: physicochemical
Procedure: Isomer stability under long-term and accelerated conditions was studied.
Compound A and isomers A-P1 and A-P2 were investigated for traits and isomeric stability at −20±5° C., 5° C.±3° C., 25° C.±2° C. (60%±5% RH) and 40° C.±2° C.

[2] = Blood-brain barrier assay of Compound AST-2870 (plasma and brain concentration, PK); format: in vivo, CD-1 mice
Procedure: Three CD-1 mice were administered 10 mg/kg of test Compound AST-2870 by intraperitoneal injection at each time point. Blood and brain tissues were taken at 5 min, 15 min, 30 min, 1 h, 1.5 h, and 2 h after administration, and the concentration of the test substance in the samples was determined by LC/MS method. The corresponding results of the concentrations of Compound AST-2870 in blood and brain tissue versus time were made into a curve graph, as shown in FIG. 37. The corresponding test results of the ratio of the concentration of the Compound AST-2870 in brain tissue and blood versus time were made into a curve graph, as shown in FIG. 38.

[3] = system: human lung cancer NCI-H460 cells; assay: In vivo pharmacodynamics, NCI-H460 subcutaneous xenograft model; parameters: species or system BALB/c nude mice; conditions: for Tumor volume: 100 mg/kg i.p.
[4] = system: HuPrime model PA1222 human pancreatic cancer; assay: In vivo pharmacodynamics, pancreatic cancer PA1222 PDX model; conditions: for Tumor volume: 120 mg/kg i.p.
Procedure: The test was divided into groups of test drug Gemcitabine 120 mg/kg group, test drug Compound A 10 mg/kg and 7.5% anhydrous ethanol+7.5% polyoxyethylene (35) castor oil+85% glucose injection DSW (pH 7.4) vehicle control group, a total of 3 groups, with 5 mice per group. […] Test drug Gemcitabine (Gemcitabine) 120 mg/kg group was administered intraperitoneally, once a week for three consecutive weeks.

[5] = system: human lung cancer NCI-H460-Luc2 cells (intracranial); assay: In vivo pharmacodynamics, NCI-H460-Luc2 intracranial inoculation CDX model; parameters: species or system BALB/c nude mice; conditions: 20 mg/kg, i.p. QWx3; Day 11
Procedure: The experiment was divided into groups of test drug Paclitaxel 20 mg/kg group, Compound A 2 mg/kg, 4 mg/kg and 8 mg/kg groups and 10% ethanol+10% polyoxyethylene castor oil+80% glucose injection DSW (pH 7.42) vehicle control group (Vehicle group), with 6 mice per group. […] The positive drug Paclitaxel 20 mg/kg group was administered by intraperitoneal injection and administered once a week for 3 weeks.
The pharmacodynamic analysis of each group in the human NCI-H460-luc intracranial inoculation model was performed based on the measured bioluminescence values on day 11 after administration, and the results were shown in Table 14.

[6] = system: HuPrime model LU2505 human lung cancer; assay: In vivo pharmacodynamics, lung cancer LU2505 PDX model; parameters: species or system BALB/c nude mice; conditions: for Tumor volume: 20 mg/kg i.p.
[7] = system: HuPrime model LU0884 human lung cancer; assay: In vivo pharmacodynamics, lung cancer LU0884 PDX model; parameters: species or system BALB/c nude mice; conditions: for Size of tumor volume: Group 2, Paclitaxel 20 mg/kg
P-gp = target: T1, P-gp (Homo sapiens, UniProt P08183); assay: P-gp substrate evaluation, MDCKII-MDR1 penetration test with or without Verapamil; format: in vitro ADME; conditions: Verapamil 0 μM
T1 construct: expressed in transfected cells; host or cells: MDCKII-MDR1 cells
Procedure: The conditions of the incubator were set as 37° C., 5% CO2, and 95% of the relative humidity.
After that, the MDCKII-MDR1 cells can be used for the penetration test.
(1) MDCKII-MDR1 transwell culture plate was taken out from the incubator.
(6) The upper and lower transportations were pooled and then incubated at 37° C. for 2 h.
After the sample tubes were vortexed for 10 min, and centrifuged at 3220 g for 30 min. […] Each sample was adopted to the three parallel incubation.
Efflux Ratio was calculated by the following formula: […]
Recovery was calculated by the following formula: […]

[8] = 25° C. ± 2° C./60% ± 5% RH, 1 month
[9] = 25° C. ± 2° C./60% ± 5% RH, 3 months
[10] = 40° C. ± 2° C./75% ± 5% RH, 1 month
[11] = brain tissues, 10 mg/kg intraperitoneal injection, Mean
[12] = plasma, 10 mg/kg intraperitoneal injection, Mean
[13] = 20 mg/kg i.p. every four days x4, Day 28
[14] = Paclitaxel 20 mg/kg, Q4Dx4, i.p., Day 28

T1 sequence (P08183 whole entry): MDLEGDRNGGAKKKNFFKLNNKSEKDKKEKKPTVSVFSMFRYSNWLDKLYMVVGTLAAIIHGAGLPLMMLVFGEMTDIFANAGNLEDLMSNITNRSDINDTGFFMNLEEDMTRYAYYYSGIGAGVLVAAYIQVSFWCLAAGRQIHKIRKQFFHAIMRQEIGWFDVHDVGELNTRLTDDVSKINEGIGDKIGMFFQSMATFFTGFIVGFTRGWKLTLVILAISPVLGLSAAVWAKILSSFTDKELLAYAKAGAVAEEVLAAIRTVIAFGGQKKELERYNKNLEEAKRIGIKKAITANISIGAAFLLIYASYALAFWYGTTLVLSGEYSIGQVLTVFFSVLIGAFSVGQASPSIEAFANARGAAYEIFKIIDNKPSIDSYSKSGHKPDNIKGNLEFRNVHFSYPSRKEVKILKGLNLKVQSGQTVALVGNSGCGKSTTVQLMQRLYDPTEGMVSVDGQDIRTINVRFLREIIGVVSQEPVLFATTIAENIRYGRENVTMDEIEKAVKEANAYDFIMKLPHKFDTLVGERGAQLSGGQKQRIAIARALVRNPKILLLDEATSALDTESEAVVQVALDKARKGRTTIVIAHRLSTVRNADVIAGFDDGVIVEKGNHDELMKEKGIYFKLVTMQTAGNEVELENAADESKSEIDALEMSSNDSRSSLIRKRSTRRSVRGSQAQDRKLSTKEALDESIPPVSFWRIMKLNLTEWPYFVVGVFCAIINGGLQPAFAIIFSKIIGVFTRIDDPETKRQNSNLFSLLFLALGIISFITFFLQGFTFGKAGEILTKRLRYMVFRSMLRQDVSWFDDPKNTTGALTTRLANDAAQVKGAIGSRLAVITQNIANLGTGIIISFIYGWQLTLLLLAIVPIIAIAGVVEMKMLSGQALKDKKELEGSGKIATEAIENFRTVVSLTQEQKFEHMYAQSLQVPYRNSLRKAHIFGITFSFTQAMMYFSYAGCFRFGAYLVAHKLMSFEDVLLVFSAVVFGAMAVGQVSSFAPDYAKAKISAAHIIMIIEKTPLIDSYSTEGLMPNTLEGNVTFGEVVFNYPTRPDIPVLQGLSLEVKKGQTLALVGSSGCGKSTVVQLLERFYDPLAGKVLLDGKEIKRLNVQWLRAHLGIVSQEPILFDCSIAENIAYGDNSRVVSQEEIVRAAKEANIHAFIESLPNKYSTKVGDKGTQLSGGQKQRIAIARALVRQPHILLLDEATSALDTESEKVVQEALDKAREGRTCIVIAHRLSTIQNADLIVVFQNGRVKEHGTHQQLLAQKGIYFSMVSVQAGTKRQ

Q: What does the source list for `O=[N+]([O-])c1ccc(C(OP(=O)(N2CC2)N2CC2)C(F)(F)F)cc1Oc1ccc(-c2ccc(F)cc2)c(F)c1` (single isomer, unassigned) [A-P2]?
A: Isomer peak A-P1 ([1]; 0 month): 0.25%; Isomer peak A-P2 ([1]; 0 month): 99.75%; Isomer peak A-P1 ([1]; 5° C. ± 3° C., 1 month): 0.25%; Isomer peak A-P2 ([1]; 5° C. ± 3° C., 1 month): 99.75%; Isomer transformation ([1]; 5° C. ± 3° C., 1 month): 0.00%; Isomer peak A-P1 ([1]; 5° C. ± 3° C., 3 months): 0.25%; Isomer peak A-P2 ([1]; 5° C. ± 3° C., 3 months): 99.75%; Isomer transformation ([1]; 5° C. ± 3° C., 3 months): 0.00%; Isomer peak A-P1 [1, 8]: 0.25%; Isomer peak A-P2 [1, 8]: 99.75%; Isomer transformation [1, 8]: 0.00%; Isomer peak A-P1 [1, 9]: 0.25%; Isomer peak A-P2 [1, 9]: 99.75%; Isomer transformation [1, 9]: 0.00%; Isomer peak A-P1 [1, 10]: 0.26%; Isomer peak A-P2 [1, 10]: 99.74%; Isomer transformation [1, 10]: 0.01%; colour and chirality after storage ([1]; −20° C., 5° C., 25° C./60% RH 3 months, 40° C./75% RH 1 month): essentially no change; Isomer peak A-P1 ([1]; −20 ± 5° C., 3 months): 0.26%; Isomer peak A-P2 ([1]; −20 ± 5° C., 3 months): 99.74%; Isomer transformation ([1]; −20 ± 5° C., 3 months): −0.01%

Q: Which concentration in brain ([2]; 10 mg/kg i.p., after 30 minutes) does the source give for `CC(OP(=O)(N1CC1)N1CC1)c1ccc([N+](=O)[O-])c(Oc2cccc(C(=O)N(C)C)c2)c1` (centres unmarked) [AST-2870] here?
A: lower than the lower limit of quantitation

Q: And the blood-brain barrier penetration ([2]; 10 mg/kg intraperitoneal injection)?
A: could not cross the blood-brain barrier

Q: What about the “AUCInf Ratio (Brain/Plasma)” value ([2]; 10 mg/kg intraperitoneal injection, Mean) of the same compound?
A: 0.0227

Q: And the AUCInf [2, 11]?
A: 16.5 ng·h/g

Q: And the AUClast [2, 11]?
A: 16.3 ng·h/g

Q: What about the Tmax [2, 11] of the same compound?
A: 4.8 min

Q: What about the T½ [2, 11] of the same compound?
A: 4.48 min

Q: What about the AUCInf [2, 12] of the same compound?
A: 725 ng·h/mL

Q: What about the AUClast [2, 12] of the same compound?
A: 725 ng·h/mL

Q: What about the Cmax [2, 12] of the same compound?
A: 4023 ng/mL

Q: What about the T½ [2, 12] of the same compound?
A: 9 min

Q: With `N.N.O=C([O-])C1(C(=O)[O-])CCC1.[Pt+2]` [Carboplatin, reference compound] as the compound, how does the Tumor volume ([3]; Day 7) read?
A: 145.46 mm^3

Q: And the Tumor volume ([3]; Day 10)?
A: 262.15 mm^3

Q: And the Tumor volume ([3]; Day 14)?
A: 409.97 mm^3

Q: What about the Tumor volume ([3]; Day 17) of the same compound?
A: 529.44 mm^3

Q: What about the Tumor volume ([3]; Day 21) of the same compound?
A: 761.56 mm^3

Q: And the Tumor volume ([3]; Day 24)?
A: 960.42 mm^3

Q: And the Tumor volume ([3]; Day 28)?
A: 1073.28 mm^3

Q: And the Tumor volume ([3]; Day 31)?
A: 1230.93 mm^3

Q: What about the Tumor volume ([3]; Day 35) of the same compound?
A: 1577.99 mm^3

Q: And the “Relative tumor volume (x ± S)” value ([3]; 100 mg/kg, QWx3, i.p., Day 31)?
A: 8.58 ± 1.16

Q: What about the “T/C (%)” value ([3]; 100 mg/kg, QWx3, i.p., Day 31) of the same compound?
A: 64.81%

Q: And the “TGI (%)” value ([3]; 100 mg/kg, QWx3, i.p., Day 31)?
A: 35.19%

Q: What about the “Tumor volume (x ± S)” value ([3]; 100 mg/kg, QWx3, i.p., Day 31, in mm³ (unit assumed)) of the same compound?
A: 1230.93 ± 258.17

Q: With `Nc1ccn([C@@H]2O[C@H](CO)[C@@H](O)C2(F)F)c(=O)n1` [Gemcitabine, reference compound] as the compound, how does the Tumor volume ([4]; Day 0) read?
A: 111.91 mm^3

Q: What about the Tumor volume ([4]; Day 3) of the same compound?
A: 136.17 mm^3

Q: What about the Tumor volume ([4]; Day 7) of the same compound?
A: 153.75 mm^3

Q: What about the Tumor volume ([4]; Day 10) of the same compound?
A: 157.55 mm^3

Q: What about the Tumor volume ([4]; Day 14) of the same compound?
A: 147.44 mm^3

Q: And the Tumor volume ([4]; Day 17)?
A: 136.71 mm^3

Q: And the Tumor volume ([4]; Day 21)?
A: 138.01 mm^3

Q: What about the Tumor volume ([4]; Day 24) of the same compound?
A: 153.69 mm^3

Q: And the Tumor volume ([4]; Day 28)?
A: 166.11 mm^3

Q: And the “Relative tumor volume (x ± S)” value ([4]; 120 mg/kg, QWx3, i.p., Day 28)?
A: 1.49 ± 0.19

Q: And the “T/C (%)” value ([4]; 120 mg/kg, QWx3, i.p., Day 28)?
A: 42.83%

Q: And the “TGI (%)” value ([4]; 120 mg/kg, QWx3, i.p., Day 28)?
A: 57.17%

Q: What about the “Tumor volume (x ± S)” value ([4]; 120 mg/kg, QWx3, i.p., Day 28) of the same compound?
A: 166.11 ± 24.40

Q: Which results are given for `CC(=O)O[C@H]1C(=O)[C@@]2(C)[C@H]([C@H](OC(=O)c3ccccc3)[C@]3(O)C[C@H](OC(=O)[C@H](O)[C@@H](NC(=O)c4ccccc4)c4ccccc4)C(C)=C1C3(C)C)[C@]1(OC(C)=O)CO[C@@H]1C[C@@H]2O` [Paclitaxel, reference compound]?
A: Bioluminescence Value (Day 11) [5]: 4184.52 ± 1679.77 ×10^5 photon/second; T/C (%) [5]: 130.82%; TGI (%) [5]: −62.45%; Relative tumor volume (x ± S) [6, 13]: 2.29 ± 1.37; T/C (%) [6, 13]: 21.40%; TGI (%) [6, 13]: 78.60%; Tumor volume (x ± S) ([6]; 20 mg/kg i.p. every four days x4, Day 28, in mm³ (unit assumed)): 250.47 ± 157.81; Tumor volume ([6]; Day 0): 103.12 mm^3; Tumor volume ([6]; Day 4): 133.63 mm^3; Tumor volume ([6]; Day 7): 133.14 mm^3; Tumor volume ([6]; Day 11): 132.14 mm^3; Tumor volume ([6]; Day 14): 164.42 mm^3; Tumor volume ([6]; Day 18): 207.89 mm^3; Tumor volume ([6]; Day 21): 238.63 mm^3; Tumor volume ([6]; Day 25): 231.63 mm^3; Tumor volume ([6]; Day 28): 250.47 mm^3; Size of tumor volume ([7]; Day 0): 110.11 mm^3; Size of tumor volume ([7]; Day 4): 157.57 mm^3; Size of tumor volume ([7]; Day 7): 229.87 mm^3; Size of tumor volume ([7]; Day 11): 250.46 mm^3; Size of tumor volume ([7]; Day 14): 292.52 mm^3; Size of tumor volume ([7]; Day 18): 381.53 mm^3; Size of tumor volume ([7]; Day 21): 402.62 mm^3; Size of tumor volume ([7]; Day 25): 492.50 mm^3; Size of tumor volume ([7]; Day 28): 528.88 mm^3; T/C (%) [7, 14]: 78.79%; TGI (%) [7, 14]: 21.21%; Relative tumor volume (x ± S) ([7]; Paclitaxel 20 mg/kg, Q4Dx4, i.p., Day 28, mean ± standard error): 4.72 ± 1.26; Tumor volume (x ± S) ([7]; Paclitaxel 20 mg/kg, Q4Dx4, i.p., Day 28, mean ± standard error, in mm³ (unit assumed)): 528.88 ± 147.69; tumor inhibitory effect ([7]; Paclitaxel 20 mg/kg, Compound A 2.5, 5, 10 mg/kg): weak tumor inhibitory effect

Q: Which “Efflux Ratio” value (P-gp) does the source give for `COc1cc2nc(N3CCN(C(=O)c4ccco4)CC3)nc(N)c2cc1OC` [Prazosin] here?
A: 2.90
